Patent US12371428B2 (Exelixis, Inc., priority 2019, dated 2025)

What was measured:
Type in all cases: cell-based
[1] = target: KDR (phospho-KDR, VEGF165-stimulated HUVEC cells) (Homo sapiens (Human), UniProt P35968); experiment: KDR autophosphorylation ELISA in HUVEC cells (Example G); settings: cellular activity; KDR autophosphorylation ELISA in HUVEC cells
Outline: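 First, endothelial cells were cultured a day, then kept without serum for another day. Next came 1 h with serially diluted compound, a brief 5 min VEGF165 stimulus (100 ng/mL), rapid lysis, and ELISA detection of receptor phosphorylation relative to stimulated and non-stimulated controls.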

[2] = target: Mer (phospho-Mer, MERTK-transfected 293A cells) (Homo sapiens (Human), UniProt Q12866); experiment: Mer autophosphorylation ELISA in transient transfected 293A cells (Example H); settings: cellular activity; Mer autophosphorylation ELISA in transient transfected 293A cells
Sequence of Mer (phospho-Mer, MERTK-transfected 293A cells) (Q12866 21-999): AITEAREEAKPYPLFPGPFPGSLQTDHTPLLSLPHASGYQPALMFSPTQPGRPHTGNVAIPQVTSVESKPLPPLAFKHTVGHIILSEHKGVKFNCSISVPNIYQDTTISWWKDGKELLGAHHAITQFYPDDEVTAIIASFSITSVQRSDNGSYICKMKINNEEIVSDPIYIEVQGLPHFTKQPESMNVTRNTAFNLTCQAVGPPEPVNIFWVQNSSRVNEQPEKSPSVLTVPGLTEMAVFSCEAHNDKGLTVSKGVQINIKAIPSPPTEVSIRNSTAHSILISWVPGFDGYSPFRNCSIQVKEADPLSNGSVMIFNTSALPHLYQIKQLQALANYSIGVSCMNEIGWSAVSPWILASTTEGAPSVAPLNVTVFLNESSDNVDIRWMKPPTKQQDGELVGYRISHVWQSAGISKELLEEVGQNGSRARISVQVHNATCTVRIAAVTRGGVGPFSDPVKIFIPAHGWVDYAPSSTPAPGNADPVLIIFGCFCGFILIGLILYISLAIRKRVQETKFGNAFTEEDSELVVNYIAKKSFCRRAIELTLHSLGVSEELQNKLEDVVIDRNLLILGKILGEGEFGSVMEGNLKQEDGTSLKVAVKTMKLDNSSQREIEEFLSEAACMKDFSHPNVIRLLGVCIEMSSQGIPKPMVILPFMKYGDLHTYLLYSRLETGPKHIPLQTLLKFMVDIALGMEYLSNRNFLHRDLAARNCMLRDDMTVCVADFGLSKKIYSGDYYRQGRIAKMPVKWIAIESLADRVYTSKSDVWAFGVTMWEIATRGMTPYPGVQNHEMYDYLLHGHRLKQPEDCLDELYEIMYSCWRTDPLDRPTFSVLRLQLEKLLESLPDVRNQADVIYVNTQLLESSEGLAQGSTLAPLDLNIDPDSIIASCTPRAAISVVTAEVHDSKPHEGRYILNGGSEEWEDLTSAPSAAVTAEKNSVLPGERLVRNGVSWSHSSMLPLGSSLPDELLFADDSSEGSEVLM
Outline: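 MERTK-transfected 293A; 8-pt dose, 1 h, serum-free, 0.3% DMSO. Cold lysis with orthovanadate and protease/phosphatase inhibitors. Phospho-Mer by DuoSet IC ELISA vs phospho-Mer standard. IC50: 4-PL fit; DMSO = 100%, reference inhibitor = 0%.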

[3] = target: AXL (phospho-AXL, Gas6-stimulated A-172 glioblastoma cells) (Homo sapiens (Human), UniProt P30530); experiment: AXL autophosphorylation ELISA in A-172 cells (Example E); settings: cellular activity; AXL autophosphorylation ELISA in A-172 cells; read-out: Axl IC50
Sequence of AXL (phospho-AXL, Gas6-stimulated A-172 glioblastoma cells) (P30530 26-894): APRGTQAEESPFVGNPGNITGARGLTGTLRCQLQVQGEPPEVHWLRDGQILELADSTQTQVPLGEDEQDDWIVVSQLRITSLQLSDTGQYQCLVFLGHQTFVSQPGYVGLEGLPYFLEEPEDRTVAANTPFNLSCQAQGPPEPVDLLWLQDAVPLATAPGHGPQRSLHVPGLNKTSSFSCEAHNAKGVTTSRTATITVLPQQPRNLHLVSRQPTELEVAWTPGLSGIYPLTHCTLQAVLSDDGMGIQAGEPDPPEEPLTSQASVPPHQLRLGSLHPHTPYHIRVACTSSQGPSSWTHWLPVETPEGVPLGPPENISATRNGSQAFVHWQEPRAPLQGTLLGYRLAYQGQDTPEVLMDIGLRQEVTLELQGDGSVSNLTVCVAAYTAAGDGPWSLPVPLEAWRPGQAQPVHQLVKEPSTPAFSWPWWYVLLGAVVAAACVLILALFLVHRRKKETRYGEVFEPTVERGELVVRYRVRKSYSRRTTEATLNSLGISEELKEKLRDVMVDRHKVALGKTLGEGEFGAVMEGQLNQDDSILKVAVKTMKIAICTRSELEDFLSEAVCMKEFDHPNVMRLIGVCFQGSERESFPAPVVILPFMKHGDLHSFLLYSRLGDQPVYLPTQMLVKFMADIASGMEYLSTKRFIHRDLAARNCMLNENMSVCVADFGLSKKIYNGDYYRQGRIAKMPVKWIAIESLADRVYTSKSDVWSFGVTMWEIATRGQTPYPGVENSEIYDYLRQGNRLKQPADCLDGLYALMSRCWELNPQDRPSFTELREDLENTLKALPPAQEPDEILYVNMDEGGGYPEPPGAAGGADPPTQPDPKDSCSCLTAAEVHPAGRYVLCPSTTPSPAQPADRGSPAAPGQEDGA
Outline: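 Phospho-AXL was measured by ELISA in lysates of Gas6-stimulated A-172 cells, starved 24 h in serum-free medium and exposed 1 h to an 8-point compound dilution at 0.3% DMSO.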

[4] = target: Met (phospho-Met, HGF-stimulated PC-3 prostate cancer cells) (Homo sapiens (Human), UniProt P08581); experiment: Met autophosphorylation ELISA in PC-3 cells (Example F); settings: cellular activity; Met autophosphorylation ELISA in PC-3 cells; read-out: c-Met IC50
Sequence of Met (phospho-Met, HGF-stimulated PC-3 prostate cancer cells) (P08581 25-1390): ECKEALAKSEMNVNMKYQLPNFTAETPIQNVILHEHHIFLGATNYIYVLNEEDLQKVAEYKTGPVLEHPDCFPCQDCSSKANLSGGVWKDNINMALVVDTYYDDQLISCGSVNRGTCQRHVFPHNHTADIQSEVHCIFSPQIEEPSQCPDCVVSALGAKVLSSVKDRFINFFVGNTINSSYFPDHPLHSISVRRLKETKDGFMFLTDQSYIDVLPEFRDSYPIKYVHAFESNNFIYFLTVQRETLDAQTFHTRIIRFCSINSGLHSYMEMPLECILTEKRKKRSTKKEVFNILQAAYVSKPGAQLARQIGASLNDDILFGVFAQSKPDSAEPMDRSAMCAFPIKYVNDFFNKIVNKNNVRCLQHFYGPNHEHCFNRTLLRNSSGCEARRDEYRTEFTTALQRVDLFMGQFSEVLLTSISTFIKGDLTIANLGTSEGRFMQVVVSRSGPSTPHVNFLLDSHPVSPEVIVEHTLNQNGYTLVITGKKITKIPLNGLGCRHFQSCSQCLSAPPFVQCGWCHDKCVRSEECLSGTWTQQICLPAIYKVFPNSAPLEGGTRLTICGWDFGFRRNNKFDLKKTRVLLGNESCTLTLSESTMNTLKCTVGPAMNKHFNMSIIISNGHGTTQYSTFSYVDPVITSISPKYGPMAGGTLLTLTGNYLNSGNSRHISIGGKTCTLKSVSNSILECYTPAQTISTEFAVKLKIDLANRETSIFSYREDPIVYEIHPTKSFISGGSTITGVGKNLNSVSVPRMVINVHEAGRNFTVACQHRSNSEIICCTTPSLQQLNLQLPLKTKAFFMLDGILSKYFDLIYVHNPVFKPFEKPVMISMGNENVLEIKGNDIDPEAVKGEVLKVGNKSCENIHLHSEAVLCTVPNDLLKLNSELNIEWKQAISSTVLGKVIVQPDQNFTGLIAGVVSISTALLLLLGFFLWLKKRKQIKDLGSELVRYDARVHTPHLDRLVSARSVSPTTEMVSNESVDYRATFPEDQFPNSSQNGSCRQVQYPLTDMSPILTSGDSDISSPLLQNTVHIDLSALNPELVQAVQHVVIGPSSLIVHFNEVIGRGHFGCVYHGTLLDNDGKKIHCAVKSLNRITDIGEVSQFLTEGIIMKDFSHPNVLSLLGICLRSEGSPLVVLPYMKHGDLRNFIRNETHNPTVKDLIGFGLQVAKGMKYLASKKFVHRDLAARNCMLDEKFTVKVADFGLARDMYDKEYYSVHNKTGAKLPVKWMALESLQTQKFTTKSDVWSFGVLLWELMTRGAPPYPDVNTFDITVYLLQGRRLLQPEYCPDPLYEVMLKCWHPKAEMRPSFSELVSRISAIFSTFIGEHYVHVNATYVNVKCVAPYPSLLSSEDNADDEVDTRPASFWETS
Outline: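 Compounds were tested on HGF-stimulated PC-3 cells. After 24 h culture and 3 h serum starvation, cells got compound for 1 h and 100 ng/mL HGF for 10 min, and Met tyrosine phosphorylation was measured by ELISA.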

Sequence of KDR (phospho-KDR, VEGF165-stimulated HUVEC cells) (P35968 20-1356): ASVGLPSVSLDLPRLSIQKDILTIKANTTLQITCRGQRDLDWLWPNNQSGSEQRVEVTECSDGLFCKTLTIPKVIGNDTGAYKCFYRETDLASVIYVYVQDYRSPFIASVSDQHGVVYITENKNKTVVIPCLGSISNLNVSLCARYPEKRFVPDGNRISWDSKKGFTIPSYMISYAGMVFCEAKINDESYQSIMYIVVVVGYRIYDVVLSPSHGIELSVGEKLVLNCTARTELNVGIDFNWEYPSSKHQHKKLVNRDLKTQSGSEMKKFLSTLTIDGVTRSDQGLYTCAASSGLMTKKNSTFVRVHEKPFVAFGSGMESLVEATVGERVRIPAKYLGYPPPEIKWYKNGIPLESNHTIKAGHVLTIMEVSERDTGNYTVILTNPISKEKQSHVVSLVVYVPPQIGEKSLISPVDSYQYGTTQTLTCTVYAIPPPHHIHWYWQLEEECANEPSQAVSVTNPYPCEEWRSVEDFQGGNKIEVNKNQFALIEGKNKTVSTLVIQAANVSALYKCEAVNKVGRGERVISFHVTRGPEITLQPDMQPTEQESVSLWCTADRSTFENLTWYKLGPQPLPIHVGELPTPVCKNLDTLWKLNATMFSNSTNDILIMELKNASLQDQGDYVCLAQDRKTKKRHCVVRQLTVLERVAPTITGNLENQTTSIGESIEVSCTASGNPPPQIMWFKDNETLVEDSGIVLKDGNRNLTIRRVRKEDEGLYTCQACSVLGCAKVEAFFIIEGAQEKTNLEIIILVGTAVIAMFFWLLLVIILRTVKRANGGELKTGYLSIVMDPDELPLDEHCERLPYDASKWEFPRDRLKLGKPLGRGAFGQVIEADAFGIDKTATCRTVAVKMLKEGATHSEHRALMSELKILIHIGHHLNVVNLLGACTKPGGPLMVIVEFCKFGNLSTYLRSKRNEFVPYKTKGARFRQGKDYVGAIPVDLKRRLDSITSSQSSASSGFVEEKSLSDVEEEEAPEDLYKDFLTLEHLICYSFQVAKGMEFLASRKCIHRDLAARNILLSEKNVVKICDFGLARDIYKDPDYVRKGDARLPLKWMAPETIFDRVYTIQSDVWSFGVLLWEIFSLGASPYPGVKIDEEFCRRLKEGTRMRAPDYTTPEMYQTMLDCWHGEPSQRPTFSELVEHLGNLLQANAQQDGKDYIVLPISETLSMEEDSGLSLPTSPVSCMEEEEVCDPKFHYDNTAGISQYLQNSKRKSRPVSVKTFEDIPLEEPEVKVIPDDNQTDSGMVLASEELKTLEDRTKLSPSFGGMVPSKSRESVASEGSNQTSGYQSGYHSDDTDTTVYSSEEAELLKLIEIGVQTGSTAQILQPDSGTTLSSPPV

Row | IC50 [1] | IC50 [2] | IC50 [3] | IC50 [4] | Structure (SMILES)
1 | > 0.3 µM | < 0.1 µM | < 0.1 µM | < 0.1 µM | CCOCc1nc(C)c(-c2ccc(F)cc2C)c(O)c1C(=O)Nc1ccc(Oc2ccnc3cc(OC)cnc23)c(F)c1 [Compound 667, 2-(ethoxymethyl)-N-[3-fluoro-4-[(7-methoxy-1,5-naphthyridin-4-yl)oxy]phenyl]-5-(4-fluoro-2-methylphenyl)-4-hydroxy-6-methylpyridine-3-carboxamide]
2 | < 0.1 µM | < 0.1 µM | < 0.1 µM | < 0.1 µM | COc1cc2nccc(Oc3ccc(NC(=O)c4cn(C(F)F)c(C)c(-c5ccc(F)cc5)c4=O)cc3F)c2nc1OC [Compound 668, 1-(difluoromethyl)-N-[4-[(6,7-dimethoxy-1,5-naphthyridin-4-yl)oxy]-3-fluorophenyl]-5-(4-fluorophenyl)-6-methyl-4-oxopyridine-3-carboxamide]
3 | > 0.3 µM | < 0.1 µM | < 0.1 µM | < 0.1 µM | COc1cnc2c(Oc3ccc(NC(=O)c4cn(C(F)F)c(C)c(-c5ccc(F)cc5)c4=O)cc3)ccnc2c1 [Compound 669, 1-(difluoromethyl)-5-(4-fluorophenyl)-N-[4-[(7-methoxy-1,5-naphthyridin-4-yl)oxy]phenyl]-6-methyl-4-oxopyridine-3-carboxamide]
4 | < 0.1 µM | < 0.1 µM | < 0.1 µM | < 0.1 µM | COc1cnc2c(Oc3ccc(NC(=O)c4cnc(C)c(-c5ccc(F)c(OC)c5)c4O)cc3F)ccnc2c1 [Compound 670, N-[3-fluoro-4-[(7-methoxy-1,5-naphthyridin-4-yl)oxy]phenyl]-5-(4-fluoro-3-methoxyphenyl)-4-hydroxy-6-methylpyridine-3-carboxamide]
5 | < 0.1 µM | < 0.1 µM | < 0.1 µM | < 0.1 µM | CCOc1nc2c(Oc3ccc(NC(=O)c4c(C)ncc(-c5ccc(F)cc5)c4O)cc3)ccnc2cc1OC [Compound 671, N-[4-[(6-ethoxy-7-methoxy-1,5-naphthyridin-4-yl)oxy]phenyl]-5-(4-fluorophenyl)-4-hydroxy-2-methylpyridine-3-carboxamide]
6 | < 0.1 µM | < 0.1 µM | < 0.1 µM | < 0.1 µM | CCOc1nc2c(Oc3ccc(NC(=O)c4c(COC)nc(C)c(-c5ccc(F)cc5)c4O)cc3)ccnc2cc1OC [Compound 672, N-[4-[(6-ethoxy-7-methoxy-1,5-naphthyridin-4-yl)oxy]phenyl]-5-(4-fluorophenyl)-4-hydroxy-2-(methoxymethyl)-6-methylpyridine-3-carboxamide]
7 | < 0.1 µM | < 0.1 µM | < 0.1 µM | < 0.1 µM | CCOc1nc2c(Oc3ccc(NC(=O)c4cnc(C)c(-c5ccc(F)cc5C)c4O)cc3)ccnc2cc1OC [Compound 673, N-[4-[(6-ethoxy-7-methoxy-1,5-naphthyridin-4-yl)oxy]phenyl]-5-(4-fluoro-2-methylphenyl)-4-hydroxy-6-methylpyridine-3-carboxamide]
8 | < 0.1 µM | < 0.1 µM | < 0.1 µM | < 0.1 µM | CCOc1nc2c(Oc3ccc(NC(=O)c4c(C)nc(C)c(-c5ccc(F)cc5C)c4O)cc3)ccnc2cc1OC [Compound 674, N-[4-[(6-ethoxy-7-methoxy-1,5-naphthyridin-4-yl)oxy]phenyl]-5-(4-fluoro-2-methylphenyl)-4-hydroxy-2,6-dimethylpyridine-3-carboxamide]
9 | < 0.1 µM | < 0.1 µM | < 0.1 µM | < 0.1 µM | CCOc1nc2c(Oc3ccc(NC(=O)c4c(C)ncc(-c5ccc(F)cc5)c4O)cc3F)ccnc2cc1OC [Compound 675, N-[4-[(6-ethoxy-7-methoxy-1,5-naphthyridin-4-yl)oxy]-3-fluorophenyl]-5-(4-fluorophenyl)-4-hydroxy-2-methylpyridine-3-carboxamide]
10 | < 0.1 µM | < 0.1 µM | < 0.1 µM | < 0.1 µM | CCOc1nc2c(Oc3ccc(NC(=O)c4c(COC)nc(C)c(-c5ccc(F)cc5)c4O)cc3F)ccnc2cc1OC [Compound 676, N-[4-[(6-ethoxy-7-methoxy-1,5-naphthyridin-4-yl)oxy]-3-fluorophenyl]-5-(4-fluorophenyl)-4-hydroxy-2-(methoxymethyl)-6-methylpyridine-3-carboxamide]
11 | < 0.1 µM | < 0.1 µM | < 0.1 µM | < 0.1 µM | CCOc1nc2c(Oc3ccc(NC(=O)c4cnc(C)c(-c5ccc(F)cc5C)c4O)cc3F)ccnc2cc1OC [Compound 677, N-[4-[(6-ethoxy-7-methoxy-1,5-naphthyridin-4-yl)oxy]-3-fluorophenyl]-5-(4-fluoro-2-methylphenyl)-4-hydroxy-6-methylpyridine-3-carboxamide]
12 | < 0.1 µM | < 0.1 µM | < 0.1 µM | < 0.1 µM | CCOc1nc2c(Oc3ccc(NC(=O)c4c(C)nc(C)c(-c5ccc(F)cc5C)c4O)cc3F)ccnc2cc1OC [Compound 678, N-[4-[(6-ethoxy-7-methoxy-1,5-naphthyridin-4-yl)oxy]-3-fluorophenyl]-5-(4-fluoro-2-methylphenyl)-4-hydroxy-2,6-dimethylpyridine-3-carboxamide]
13 | < 0.1 µM | < 0.1 µM | < 0.1 µM | < 0.1 µM | COc1cc2nccc(Oc3ccc(NC(=O)c4c(C)c(C)cn(-c5ccc(F)cc5)c4=O)cc3F)c2nc1OC [Compound 679, N-[4-[(6,7-dimethoxy-1,5-naphthyridin-4-yl)oxy]-3-fluorophenyl]-1-(4-fluorophenyl)-4,5-dimethyl-2-oxopyridine-3-carboxamide]
14 | < 0.1 µM | < 0.1 µM | < 0.1 µM | < 0.1 µM | COc1cc2nccc(Oc3ccc(NC(=O)c4c(C)c(C)cn(-c5ccc(F)cc5)c4=O)cc3)c2nc1OC [Compound 680, N-[4-[(6,7-dimethoxy-1,5-naphthyridin-4-yl)oxy]phenyl]-1-(4-fluorophenyl)-4,5-dimethyl-2-oxopyridine-3-carboxamide]
15 | < 0.1 µM | < 0.1 µM | < 0.1 µM | < 0.1 µM | COc1cc2nccc(Oc3ccc(NC(=O)c4c(C)nc(C)c(-c5ccc(F)cc5C)c4O)cc3)c2nc1OC [Compound 681, N-[4-[(6,7-dimethoxy-1,5-naphthyridin-4-yl)oxy]phenyl]-5-(4-fluoro-2-methylphenyl)-4-hydroxy-2,6-dimethylpyridine-3-carboxamide]
16 | < 0.1 µM | < 0.1 µM | < 0.1 µM | < 0.1 µM | COc1cnc2c(Oc3ccc(NC(=O)c4c(C)nc(C)c(-c5ccc(F)cc5C)c4O)cc3)ccnc2c1 [Compound 682, 5-(4-fluoro-2-methylphenyl)-4-hydroxy-N-[4-[(7-methoxy-1,5-naphthyridin-4-yl)oxy]phenyl]-2,6-dimethylpyridine-3-carboxamide]
17 | < 0.1 µM | < 0.1 µM | < 0.1 µM | < 0.1 µM | COCCOc1cnc2c(Oc3ccc(NC(=O)c4c(C)nc(C)c(-c5ccc(F)cc5C)c4O)cc3F)ccnc2c1 [Compound 683, N-[3-fluoro-4-[[7-(2-methoxyethoxy)-1,5-naphthyridin-4-yl]oxy]phenyl]-5-(4-fluoro-2-methylphenyl)-4-hydroxy-2,6-dimethylpyridine-3-carboxamide]
